The values below come from patent US20250042912A1, “NOVEL NON-FLUORINATED QUINOLONE COMPOUND AND USE THEREOF” (priority 2021, published 2025).

Molecules are shown by their SMILES. Converted amounts (≈) assume the structure as drawn. Structures can show the parent of a compound that is named as a salt.

In data set [1] the test system is Propionibacterium acnes ATCC 11827. In words: Minimum inhibitory concentration (MIC) assay, Propionibacterium acnes ATCC 11827. The data set is classed as cell-based. Conditions: Cutibacterium acnes, ATCC11827; anaerobic culture 35+/-2°C, 48 hours; read with naked eyes. As for the experimental part:
(§1) On the day of the experiment, the compound in the flask was dissolved in 100% DMSO until the concentration of mother liquor was 0.4 mg/mL. If the mother liquor was not used on the same day, it was stored at −80° C. for future use. The compound mother liquor and standard antibiotics were subjected to 2-fold gradient dilution with corresponding solvents on a 96-microwell plate (V-bottom) to obtain 100× working solutions (Well 1 to Well 7) in sequence. Among them, the concentrations of the compound were 400 μg/mL, 200 μg/mL, 100 μg/mL, 50 μg/mL, 25 μg/mL, 12.5 μg/mL, 6.25 μg/mL, and 3.125 μg/mL. 100% DMSO was used as growth control (Well 8). As such, the compound motherplate was obtained. Two days before the experiment, anaerobic bacteria (Propionibacterium acnes) stored in a cryogenic tube at −80° C. were scribed on an MBA (Brucella Agar+5% (v/v) defibrillated sheep blood+[…] Hemin+1 μg/mLVitamin K1) plate. The anaerobic bacteria were placed in a 35+/−2° C. anaerobic incubator for 42-48 hours of cultivation. On the day of the experiment, the plate was taken out, clones were picked from the plate and suspended in physiological saline. Then, the turbidity of the bacterial suspension (containing 1.0-2.0×10^8 CFU/mL) was adjusted to OD600=0.2 by a turbidity meter. Then, the adjusted bacterial suspension was diluted to an appropriate concentration with the assay culture medium: about 5×10^5 CFU/mL for aerobic bacteria, and about 1×10^6 CFU/mL for anaerobic bacteria. As such, the inoculating solution was obtained. […] Therefore, the final assay concentrations of the compound were 4 μg/mL, 2 μg/mL, 1 μg/mL, 0.5 μg/mL, 0.25 μg/mL, 0.125 μg/mL, 0.06 μg/mL and 0.03 μg/mL. The total volume of each well on the assay plate was 200 μL: containing 1% DMSO, about 5×10^5 CFU/mL of aerobic bacteria and about 1×10^6 CFU/mL of anaerobic bacteria. All assay plates for aerobic bacteria were aerobically cultured at 35+/−2° C. for 16 to 20 hours, and all assay plates for anaerobic bacteria were anaerobically cultured in an anaerobic incubator at 35+/−2° C. for 48 hours. Note: for anaerobic bacteria, both the preparation of bacterial solution in step 2 and the inoculation of bacterial solution in step 3 were operated in an anaerobic workstation.

Data set [2] concerns Propionibacterium acnes ATCC 6919. The experiment in a line: Minimum inhibitory concentration (MIC) assay, Propionibacterium acnes ATCC 6919. The conditions noted are these: Cutibacterium acnes, ATCC6919; anaerobic culture 35+/-2°C, 48 hours; read with naked eyes. Format: cell-based. The method, then: as §1
Data set [3] concerns Staphylococcus epidermidis ATCC 35983. In words: Minimum inhibitory concentration (MIC) assay, Staphylococcus epidermidis ATCC 35983. Format: cell-based. The conditions noted are these: ATCC35983, aerobic culture 35+/-2°C, 16 to 20 hours, read with naked eyes. As for the experimental part: (§2) On the day of the experiment, the compound in the flask was dissolved in 100% DMSO until the concentration of mother liquor was 0.4 mg/mL. If the mother liquor was not used on the same day, it was stored at −80° C. for future use.
(§3) The compound mother liquor and standard antibiotics were subjected to 2-fold gradient dilution with corresponding solvents on a 96-microwell plate (V-bottom) to obtain 100× working solutions (Well 1 to Well 7) in sequence. Among them, the concentrations of the compound were 400 μg/mL, 200 μg/mL, 100 μg/mL, 50 μg/mL, 25 μg/mL, 12.5 μg/mL, 6.25 μg/mL, and 3.125 μg/mL. 100% DMSO was used as growth control (Well 8). As such, the compound motherplate was obtained.
(§4) One day before the experiment, aerobic bacteria (Staphylococcus epidermidis) stored in a cryogenic tube at −80° C. were scribed on an MHA (Cation-adjusted Mueller-Hinton agar) plate. The aerobic bacteria were placed in a 35+/−2° C. incubator for 18-24 hours of aerobic cultivation.
(§5) On the day of the experiment, the plate was taken out, clones were picked from the plate and suspended in physiological saline. Then, the turbidity of the bacterial suspension (containing 1.0-2.0×10^8 CFU/mL) was adjusted to OD600=0.2 by a turbidity meter. Then, the adjusted bacterial suspension was diluted to an appropriate concentration with the assay culture medium: about 5×10^5 CFU/mL for aerobic bacteria, and about 1×10^6 CFU/mL for anaerobic bacteria. As such, the inoculating solution was obtained.
(§6) 2 μl of 2-fold series dilution of 100× high-concentration working solution was transferred from a compound mother plate (prepared in step 1) to a round-bottom 96-well plate, and then 198 μL of bacterial inoculating solution (prepared in step 2) was added to each well to obtain an MIC assay plate. Therefore, the final assay concentrations of the compound were 4 μg/mL, 2 μg/mL, 1 μg/mL, 0.5 μg/mL, 0.25 μg/mL, 0.125 μg/mL, 0.06 μg/mL and 0.03 μg/mL. The total volume of each well on the assay plate was 200 μL: containing 1% DMSO, about 5×10^5 CFU/mL of aerobic bacteria and about 1×10^6 CFU/mL of anaerobic bacteria.
(§7) All assay plates for aerobic bacteria were aerobically cultured at 35+/−2° C. for 16 to 20 hours, and all assay plates for anaerobic bacteria were anaerobically cultured in an anaerobic incubator at 35+/−2° C. for 48 hours.

Data set [4] deals with Staphylococcus epidermidis ATCC 35984. The experiment in a line: Minimum inhibitory concentration (MIC) assay, Staphylococcus epidermidis ATCC 35984. Format: cell-based. The conditions noted are these: ATCC35984, aerobic culture 35+/-2°C, 16 to 20 hours, read with naked eyes. As for the experimental part:
as §2, §3, §4, §5, §6, §7

Data set [5] deals with Staphylococcus epidermidis ATCC 12228. The experiment in a line: Minimum inhibitory concentration (MIC) assay, Staphylococcus epidermidis ATCC 12228. The data set is classed as cell-based. The conditions noted are these: ATCC12228, aerobic culture 35+/-2°C, 16 to 20 hours, read with naked eyes. The method, then:
as §2, §3, §4, §5, §6, §7

The nature of data set [6]: Pharmacokinetic evaluation in mice after intravenous and oral administration. The data set is classed as in vivo. The conditions noted are these: mouse, plasma, male CD-1 mice. As for the experimental part: CD-1 mice (male, Beijing Vital River Laboratory Animal Technology Co., Ltd.)
The pharmacokinetic characteristics of rodents after intravenous and oral administration of the compounds were tested using a standard protocol. In the experiment, the candidate compounds were prepared into clear solutions and administered to mice by single intravenous injection and oral administration. The intravenous and oral vehicles were mixed vehicles of 10% DMSO+90% (20% SBE-β-CD). This project included four male CD-1 mice, two of which were administered intravenously at a dosage of 1 mg/kg, and plasma samples were collected at 0.083 hours, 0.25 hours, 0.5 hours, 1 hour, 2 hours, 4 hours, 8 hours, and 24 hours after administration; the other two mice were orally administered by gavage at a dosage of 2 mg/kg, and plasma samples were collected at 0.25 hours, 0.5 hours, 1 hour, 2 hours, 4 hours, 8 hours, and 24 hours after administration. Blood samples were placed on ice after collection, and plasma was separated by centrifugation within 1 hour (centrifugation conditions: 6000 g, 3 minutes, 2-8° C.). Plasma samples were stored in a refrigerator at −80° C. before analysis. Plasma concentrations were quantitatively analyzed using LC-MS/MS analysis method, and pharmacokinetic parameters were calculated such as peak concentration (Cmax), clearance rate (CL), half-life (T1/2), […] (Vdss), area under concentration-time curve (AUC0-last), and bioavailability (F), etc.

On to `O=C(O)c1cn(C2CC2)c2c3c(ccc2c1=O)-c1cnc(NCC2CCC2)cc1COC3` [Trifluoroacetate of Compound 16], for which the MIC – broadly, the lowest concentration found to suppress growth – in data set [1] turned out to be 0.5 µg/mL; in data set [2], 0.5 µg/mL; in data set [3] it was 0.06 µg/mL; in data set [4], 0.06 µg/mL; in data set [5], 0.06 µg/mL.
As to `Nc1cc2c(cn1)-c1ccc3c(=O)c(C(=O)O)cn(C4CC4)c3c1COC2` [Hydrochloride of Compound 7], the bioavailability in data set [6] (IV 1 mg/kg, oral gavage 2 mg/kg, read-out: Bioavailability F) came out at 132%. Also, the Cmax in data set [6] (IV 1 mg/kg, oral gavage 2 mg/kg, route of Cmax not given, read-out: Peak concentration Cmax) was 683 nM. Moreover, in data set [6] (IV 1 mg/kg, read-out: Clearance rate CL), the clearance turned out to be 132 mL/min/kg. Moreover, the half-life in data set [6] (IV 1 mg/kg, read-out: Half-life T1/2 (IV) (converted)) is 20.5 min. Also, the Vd in data set [6] (IV 1 mg/kg, read-out: Tissue distribution Vdss) amounted to 3.04 L/kg. In addition, the AUC(0-t) in data set [6] (oral gavage 2 mg/kg, read-out: Area under concentration-time curve AUC0-last PO) is 0.924 µM·h.
On to `COc1cc2c(cn1)-c1ccc3c(=O)c(C(=O)O)cn(C4CC4)c3c1COC2` [Compound 5], for which the MIC in data set [1], in data set [2], in data set [3], in data set [4] and in data set [5] was 0.06 µg/mL (≈ 0.159 µM) each time.
As to `CN(C[C@H]1COC(C)(C)O1)c1cc2c(cn1)-c1ccc3c(=O)c(C(=O)O)cn(C4CC4)c3c1COC2` [Compound 25], the minimum inhibitory concentration (MIC) in data set [1] is 0.25 µg/mL (≈ 0.509 µM); in data set [2], 0.25 µg/mL (≈ 0.509 µM); in data set [3], 0.5 µg/mL (≈ 1.02 µM); in data set [4], 0.25 µg/mL (≈ 0.509 µM); in data set [5] it was 0.25 µg/mL (≈ 0.509 µM).
For the molecule `CCNc1cc2c(cn1)-c1ccc3c(=O)c(C(=O)O)cn(C4CC4)c3c1COC2` [Trifluoroacetate of Compound 14], the minimal inhibitory concentration (MIC) in data set [1] was determined as 0.125 µg/mL; in data set [2], 0.06 µg/mL; in data set [3], 0.06 µg/mL; in data set [4], 0.03 µg/mL; in data set [5], 0.06 µg/mL.
Consider `O=C(O)c1cn(C2CC2)c2c3c(ccc2c1=O)-c1cnc(NC[C@H](O)CO)cc1COC3` [Trifluoroacetate of Compound 22], for which the MIC in data set [1] turned out to be 0.25 µg/mL; in data set [2], 0.25 µg/mL; in data set [3], 0.25 µg/mL; in data set [4] it was 0.12 µg/mL; in data set [5], 0.25 µg/mL.
In the case of `CN(CC(F)F)c1cc2c(cn1)-c1ccc3c(=O)c(C(=O)O)cn(C4CC4)c3c1COC2` [Trifluoroacetate of Compound 23], the MIC in data set [1] is 0.25 µg/mL; in data set [2], 0.12 µg/mL; in data set [3], 0.12 µg/mL; in data set [4], ≤ 0.06 µg/mL; in data set [5], 0.12 µg/mL.
Consider `Nc1ncc2c(n1)COCc1c-2ccc2c(=O)c(C(=O)O)cn(C3CC3)c12` [Trifluoroacetate of Compound 9], for which the MIC in data set [1] was determined as 0.25 µg/mL; in data set [2] it was 0.25 µg/mL; in data set [3], 0.06 µg/mL; in data set [4], 0.125 µg/mL; in data set [5] it was 0.03 µg/mL.
With `CNc1cc2c(cn1)-c1ccc3c(=O)c(C(=O)O)cn(C4CC4)c3c1COC2` [Trifluoroacetate of Compound 2], the MIC in data set [1] was found to be 0.25 µg/mL; in data set [2] it was 0.125 µg/mL; in data set [3], 0.06 µg/mL; in data set [4], 0.06 µg/mL; in data set [5] it was 0.06 µg/mL.
Take `N=C(N)NOCCOCCNc1cc2c(cn1)-c1ccc3c(=O)c(C(=O)O)cn(C4CC4)c3c1COC2` [Hydrochloride of Compound 29]: the minimum inhibitory concentration (MIC) in data set [1] stood at 1 µg/mL; in data set [2], 2 µg/mL; in data set [3], 2 µg/mL; in data set [4] it was 1 µg/mL; in data set [5] it was 2 µg/mL.
As for `CCCNc1cc2c(cn1)-c1ccc3c(=O)c(C(=O)O)cn(C4CC4)c3c1COC2` [Trifluoroacetate of Compound 13], the MIC in data set [1] amounted to 0.25 µg/mL; in data set [2], 0.125 µg/mL; in data set [3], 0.06 µg/mL; in data set [4], 0.06 µg/mL; in data set [5], 0.06 µg/mL.
